For the test, the target named is Beta-secretase 1 (Homo sapiens, UniProt P56817). In words: Inhibition of BACE1 after 60 mins by FRET assay.
Chain of Beta-secretase 1 (P56817 whole entry): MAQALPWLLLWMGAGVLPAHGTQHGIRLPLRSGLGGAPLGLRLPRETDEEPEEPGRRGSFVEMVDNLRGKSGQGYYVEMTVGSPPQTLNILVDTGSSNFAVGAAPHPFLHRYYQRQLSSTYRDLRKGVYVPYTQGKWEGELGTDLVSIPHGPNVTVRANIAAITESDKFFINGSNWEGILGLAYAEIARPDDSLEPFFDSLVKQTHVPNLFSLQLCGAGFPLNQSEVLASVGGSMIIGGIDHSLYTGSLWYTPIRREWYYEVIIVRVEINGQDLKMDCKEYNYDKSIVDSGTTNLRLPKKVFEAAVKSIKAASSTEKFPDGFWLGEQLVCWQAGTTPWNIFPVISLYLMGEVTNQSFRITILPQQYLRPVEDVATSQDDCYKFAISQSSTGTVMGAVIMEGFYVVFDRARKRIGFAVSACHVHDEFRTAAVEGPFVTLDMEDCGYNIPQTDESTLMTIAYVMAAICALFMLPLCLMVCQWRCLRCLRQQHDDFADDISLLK
What is called IC50 is the point on the concentration scale where inhibition reaches its midpoint. Higher therefore signals lower potency. Consider `COc1cc(O)c2c(=O)cc(-c3ccc(O)c(-c4c(OC)cc(O)c5c(=O)cc(-c6ccc(O)cc6)oc45)c3)oc2c1`, for which the IC50 was 6.25 µM.
On to `COc1ccc([C@@H]2CC(=O)c3c(cc(OC)c(C)c3O)O2)cc1-c1c(O)cc(O)c2c(=O)cc(-c3ccc(O)cc3)oc12`, for which the IC50 stood at 0.35 µM.
For `COc1cc(O)c2c(=O)cc(-c3ccc(OC)c(-c4c(OC)cc(O)c5c(=O)cc(-c6ccc(O)cc6)oc45)c3)oc2c1`, the IC50 is more than 10 µM.
Take `COc1ccc(-c2cc(=O)c3c(O)cc(O)cc3o2)cc1-c1c(OC)cc(O)c2c(=O)cc(-c3ccc(O)cc3)oc12`: the IC50 was more than 10 µM.
The molecule `COc1ccc(-c2cc(=O)c3c(O)cc(OC)c(-c4cc(-c5cc(=O)c6c(O)cc(OC)cc6o5)ccc4OC)c3o2)cc1` yielded an IC50 of more than 10 µM.
`COc1ccc(-c2cc(=O)c3c(O)cc(OC)c(-c4cc(-c5cc(=O)c6c(O)cc(O)cc6o5)ccc4O)c3o2)cc1` [7'',4'''-dimethylamentoflavone] gave an IC50 of more than 10 µM.
The figure for `O=c1cc(-c2ccc(O)c(-c3c(O)cc(O)c4c(=O)cc(-c5ccc(O)cc5)oc34)c2)oc2cc(O)cc(O)c12` [AMENTOFLAVONE] is 1.54 µM; for `COc1ccc(-c2cc(=O)c3c(O)cc(O)cc3o2)cc1-c1c(O)cc(O)c2c(=O)cc(-c3ccc(O)cc3)oc12` [BILOBETIN] it is 2.02 µM; for `O=c1cc(-c2ccc(O)cc2)oc2c(-c3c(O)cc(O)c4c(=O)cc(-c5ccc(O)cc5)oc34)c(O)cc(O)c12` [CUPRESSUFLAVONE] it is more than 10 µM.
`COc1cc(O)c2c(=O)cc(-c3ccc(OC)c(-c4c(O)cc(O)c5c(=O)cc(-c6ccc(O)cc6)oc45)c3)oc2c1` [GINKGETIN]: the IC50 amounted to 4.18 µM. This lies in the single-digit micromolar range.
The figure for `COc1ccc(-c2cc(=O)c3c(O)cc(OC)c(-c4cc(-c5cc(=O)c6c(O)cc(OC)cc6o5)ccc4O)c3o2)cc1` [HEVEAFLAVONE] is more than 10 µM; for `O=c1cc(-c2ccc(Oc3c(O)cc4oc(-c5ccc(O)cc5)cc(=O)c4c3O)cc2)oc2cc(O)cc(O)c12` [HINOKIFLAVONE] it is more than 10 µM; for `COc1ccc(-c2cc(=O)c3c(O)cc(O)c(-c4cc(-c5cc(=O)c6c(O)cc(O)cc6o5)ccc4OC)c3o2)cc1` [ISOGINKGETIN] it is 3.01 µM.
As for `COc1ccc(-c2cc(=O)c3c(O)cc(OC)c(-c4cc(-c5cc(=O)c6c(O)cc(O)cc6o5)ccc4OC)c3o2)cc1` [KAYAFLAVONE], the figure is more than 10 µM.
As for `COc1ccc(-c2cc(=O)c3c(O)cc(O)c(-c4cc(-c5cc(=O)c6c(O)cc(O)cc6o5)ccc4O)c3o2)cc1` [PODOCARPUSFLAVONE A], the figure is 0.99 µM; as for `COc1ccc(-c2cc(=O)c3c(O)cc(O)c(-c4cc(-c5cc(=O)c6c(O)cc(OC)cc6o5)ccc4O)c3o2)cc1` [PODOCARPUSFLAVONE B], 4.21 µM.
Consider `O=c1cc(-c2ccc(O)c(-c3c(O)cc4oc(-c5ccc(O)cc5)cc(=O)c4c3O)c2)oc2cc(O)cc(O)c12` [ROBUSTAFLAVONE], for which the IC50 is more than 10 µM.
As for `COc1ccc(-c2cc(=O)c3c(O)cc(O)c(-c4cc(-c5cc(=O)c6c(O)cc(OC)cc6o5)ccc4OC)c3o2)cc1` [SCIADOPITISIN], the figure is more than 10 µM.
Regarding `COc1cc(O)c2c(=O)cc(-c3ccc(O)c(-c4c(O)cc(O)c5c(=O)cc(-c6ccc(O)cc6)oc45)c3)oc2c1` [SEQUOIAFLAVONE], the midpoint of inhibition, the IC50, lay at 1.4 µM.
`COc1cc(O)c2c(=O)cc(-c3ccc(O)cc3)oc2c1-c1cc(-c2cc(=O)c3c(O)cc(O)cc3o2)ccc1O` [SOTETSUFLAVONE] came in with an IC50 of 1.58 µM.
